Measurements as given in the NIST ThermoML archive (doi:10.1021/je200883w).
Numbers after ± are expanded uncertainties.

Conditions: 101.33 kPa, Liquid; for viscosity: Concentric cylinders viscometry; for mass density: Vibrating tube method

COCC[N+]1(C)CCCC1.O=S(=O)([N-]S(=O)(=O)C(F)(F)F)C(F)(F)F
Conditions	mass density [kg/m3]	viscosity [mPa·s]
258.15 K	1494.1 ± 2.1	620.3 ± 25
263.15 K	1488.7 ± 2.1	412.3 ± 16
268.15 K	1483.6 ± 2.1	286.4 ± 9.8
273.15 K	1478.5 ± 2.1	204.56 ± 6.4
278.15 K	1473.7 ± 2.1	149.89 ± 4.3
283.15 K	1468.8 ± 2	112.96 ± 3
288.15 K	1464 ± 2	87.14 ± 2.2
293.15 K	1459.3 ± 2	68.61 ± 1.7
298.15 K	1454.7 ± 2	55.06 ± 1.3
303.15 K	1450 ± 2	44.9 ± 1.1
308.15 K	1445.2 ± 2	37.15 ± 0.88
313.15 K	1440.5 ± 2	31.15 ± 0.73
318.15 K	1435.9 ± 2	26.43 ± 0.62
323.15 K	1431.2 ± 2	22.66 ± 0.53
328.15 K	1426.6 ± 2	19.59 ± 0.46
333.15 K	1422 ± 1.9	17.09 ± 0.4
338.15 K	1417.4 ± 1.9	15.03 ± 0.35
343.15 K	1412.9 ± 1.9	13.32 ± 0.31
348.15 K	1408.2 ± 1.9	11.88 ± 0.27
353.15 K	1403.3 ± 1.9	10.66 ± 0.24
358.15 K	1398.6 ± 1.9	9.617 ± 0.22
363.15 K	1394.2 ± 1.9	8.718 ± 0.2
368.15 K	1389.9 ± 1.9	7.94 ± 0.18
373.15 K	1385.7 ± 1.9	7.263 ± 0.17

CCCCCCOS(=O)(=O)[O-].CC[n+]1ccn(C)c1 [3-ethyl-1-methyl-1H-imidazolium hexyl sulfate]
Conditions	mass density [kg/m3]	viscosity [mPa·s]
268.15 K	1151.4 ± 1.5	3425.9 ± 200
273.15 K	1147.9 ± 1.5	2124.1 ± 120
278.15 K	1144.4 ± 1.4	1362.1 ± 68
283.15 K	1140.9 ± 1.4	904.77 ± 41
288.15 K	1137.4 ± 1.4	620.25 ± 25
293.15 K	1133.8 ± 1.4	437.53 ± 16
298.15 K	1130.4 ± 1.4	316.78 ± 11
303.15 K	1127 ± 2	234.83 ± 7.4
308.15 K	1123.7 ± 1.4	177.81 ± 5.2
313.15 K	1120.5 ± 1.4	137.23 ± 3.8
318.15 K	1117.2 ± 1.4	107.82 ± 2.8
323.15 K	1114 ± 2	86.06 ± 2.1
328.15 K	1110.8 ± 1.4	69.71 ± 1.7
333.15 K	1107.6 ± 1.4	57.21 ± 1.4
338.15 K	1104.4 ± 1.4	47.52 ± 1.1
343.15 K	1101.2 ± 1.4	39.91 ± 0.94
348.15 K	1097.9 ± 1.4	33.86 ± 0.79
353.15 K	1094.5 ± 1.4	29 ± 0.68
358.15 K	1091.2 ± 1.4	25.04 ± 0.58
363.15 K	1088.1 ± 1.4	21.8 ± 0.51
368.15 K	1085.1 ± 1.4	19.11 ± 0.44
373.15 K	1082.3 ± 1.4	16.87 ± 0.39

CCCC[N+]1(C)CCCC1.O=S(=O)([O-])C(F)(F)F [1-butyl-1-methylpyrrolidinium trifluoromethanesulfonate]
Conditions	mass density [kg/m3]	viscosity [mPa·s]
283.15 K	1263.6 ± 1.6	414.9 ± 15
288.15 K	1259.9 ± 1.6	299.4 ± 10
293.15 K	1256.1 ± 1.6	221.7 ± 6.9
298.15 K	1252.4 ± 1.6	167.87 ± 4.9
303.15 K	1248.7 ± 1.6	129.71 ± 3.5
308.15 K	1245.1 ± 1.6	102.06 ± 2.6
313.15 K	1241.5 ± 1.6	81.62 ± 2
318.15 K	1238 ± 1.6	66.24 ± 1.6
323.15 K	1234.4 ± 1.6	54.48 ± 1.3
328.15 K	1230.8 ± 1.6	45.34 ± 1.1
333.15 K	1227.3 ± 1.6	38.16 ± 0.9
338.15 K	1223.8 ± 1.6	32.45 ± 0.76
343.15 K	1220.3 ± 1.6	27.84 ± 0.65
348.15 K	1216.8 ± 1.6	24.08 ± 0.56
353.15 K	1213.3 ± 1.6	21 ± 0.49
358.15 K	1209.7 ± 1.6	18.44 ± 0.43
363.15 K	1205.9 ± 1.5	16.29 ± 0.38
368.15 K	1202.5 ± 1.5	14.48 ± 0.33
373.15 K	1199.2 ± 1.5	12.95 ± 0.3

CCCC[N+]1(C)CCCC1.O=S(=O)([N-]S(=O)(=O)C(F)(F)F)C(F)(F)F
Conditions	mass density [kg/m3]	viscosity [mPa·s]
278.15 K	1412.9 ± 1.9	230.3 ± 7.2
283.15 K	1408.3 ± 1.9	169.6 ± 5
288.15 K	1403.8 ± 1.9	128 ± 3.5
293.15 K	1399.3 ± 1.9	98.74 ± 2.6
298.15 K	1394.9 ± 1.9	77.65 ± 1.9
303.15 K	1390.5 ± 1.9	62.14 ± 1.5
308.15 K	1386.1 ± 1.9	50.52 ± 1.2
313.15 K	1381.8 ± 1.9	41.65 ± 0.99
318.15 K	1377.4 ± 1.9	34.78 ± 0.82
323.15 K	1373 ± 1.8	29.38 ± 0.69
328.15 K	1368.7 ± 1.8	25.07 ± 0.59
333.15 K	1364.3 ± 1.8	21.6 ± 0.5
338.15 K	1360 ± 1.8	18.77 ± 0.44
343.15 K	1355.7 ± 1.8	16.44 ± 0.38
348.15 K	1351.4 ± 1.8	14.5 ± 0.34
353.15 K	1346.9 ± 1.8	12.87 ± 0.3
358.15 K	1342.5 ± 1.8	11.5 ± 0.27
363.15 K	1338.3 ± 1.8	10.33 ± 0.24
368.15 K	1334.3 ± 1.8	9.32 ± 0.21
373.15 K	1330.3 ± 1.8	8.454 ± 0.19

CCCC[N+]1(C)CCCC1.FC(F)(F)C(F)(F)[P-](F)(F)(F)(C(F)(F)C(F)(F)F)C(F)(F)C(F)(F)F
Conditions	mass density [kg/m3]	viscosity [mPa·s]
283.15 K	1599.8 ± 2.4	593.7 ± 24
288.15 K	1594.2 ± 2.3	409.8 ± 15
293.15 K	1588.6 ± 2.3	291.5 ± 9.9
298.15 K	1583.2 ± 2.3	213.1 ± 6.7
303.15 K	1577.9 ± 2.3	159.61 ± 4.6
308.15 K	1572.6 ± 2.3	122.18 ± 3.3
313.15 K	1567.4 ± 2.3	95.36 ± 2.4
318.15 K	1562.1 ± 2.3	75.75 ± 1.9
323.15 K	1556.9 ± 2.3	61.13 ± 1.5
328.15 K	1551.7 ± 2.2	50.03 ± 1.2
333.15 K	1546.6 ± 2.2	41.48 ± 0.98
338.15 K	1541.5 ± 2.2	34.79 ± 0.82
343.15 K	1536.3 ± 2.2	29.49 ± 0.69
348.15 K	1531.1 ± 2.2	25.24 ± 0.59
353.15 K	1525.7 ± 2.2	21.79 ± 0.51
358.15 K	1520.4 ± 2.2	18.97 ± 0.44
363.15 K	1515.3 ± 2.2	16.63 ± 0.39
368.15 K	1510.4 ± 2.1	14.68 ± 0.34
373.15 K	1505.5 ± 2.1	13.04 ± 0.3

CCOS(=O)(=O)[O-].CCn1cc[n+](C)c1 [1-ethyl-3-methylimidazolium ethyl sulfate]
Conditions	mass density [kg/m3]	viscosity [mPa·s]
253.15 K	1270.6 ± 1.7	3146.4 ± 190
258.15 K	1266.9 ± 1.6	1789.6 ± 97
263.15 K	1263.3 ± 1.6	1094.4 ± 53
268.15 K	1259.5 ± 1.6	700.85 ± 30
273.15 K	1255.7 ± 1.6	466.03 ± 18
278.15 K	1252 ± 1.6	321.37 ± 11
283.15 K	1248.3 ± 1.6	229.15 ± 7.4
288.15 K	1244.8 ± 1.6	168.31 ± 5
293.15 K	1241.3 ± 1.6	126.89 ± 3.5
298.15 K	1237.8 ± 1.6	97.84 ± 2.5
303.15 K	1234.4 ± 1.6	77.01 ± 1.9
308.15 K	1231 ± 1.6	61.71 ± 1.5
313.15 K	1227.6 ± 1.6	50.25 ± 1.2
318.15 K	1224.2 ± 1.6	41.51 ± 0.99
323.15 K	1220.8 ± 1.6	34.73 ± 0.82
328.15 K	1217.4 ± 1.6	29.4 ± 0.69
333.15 K	1214 ± 1.6	25.15 ± 0.59
338.15 K	1210.6 ± 1.6	21.72 ± 0.51
343.15 K	1207.2 ± 1.5	18.91 ± 0.44
348.15 K	1203.8 ± 1.5	16.6 ± 0.38
353.15 K	1200.4 ± 1.5	14.68 ± 0.34
358.15 K	1197.2 ± 1.5	13.06 ± 0.3
363.15 K	1194.1 ± 1.5	11.69 ± 0.27
368.15 K	1191.1 ± 1.5	10.52 ± 0.24
373.15 K	1188.2 ± 1.5	9.518 ± 0.22

CCCCCCCCCCCCCC[P+](CCCCCC)(CCCCCC)CCCCCC.FC(F)(F)C(F)(F)[P-](F)(F)(F)(C(F)(F)C(F)(F)F)C(F)(F)C(F)(F)F
Conditions	mass density [kg/m3]	viscosity [mPa·s]
268.15 K	1207.4 ± 1.5	3067.3 ± 180
273.15 K	1203.2 ± 1.5	2010 ± 110
278.15 K	1198.9 ± 1.5	1345.2 ± 66
283.15 K	1194.6 ± 1.5	928.39 ± 42
288.15 K	1190.3 ± 1.5	654.2 ± 27
293.15 K	1186 ± 1.5	471.76 ± 18
298.15 K	1181.7 ± 1.5	347.06 ± 12
303.15 K	1177.6 ± 1.5	260.12 ± 8.4
308.15 K	1173.5 ± 1.5	198.3 ± 6
313.15 K	1169.4 ± 1.5	153.61 ± 4.3
318.15 K	1165.3 ± 1.5	120.76 ± 3.2
323.15 K	1161.3 ± 1.5	96.23 ± 2.4
328.15 K	1157.3 ± 1.5	77.68 ± 1.9
333.15 K	1153.3 ± 1.5	63.45 ± 1.5
338.15 K	1149.3 ± 1.5	52.39 ± 1.2
343.15 K	1145.3 ± 1.4	43.71 ± 1
348.15 K	1141.2 ± 1.4	36.8 ± 0.87
353.15 K	1137 ± 1.4	31.27 ± 0.73
358.15 K	1132.7 ± 1.4	26.79 ± 0.63
363.15 K	1128.7 ± 1.4	23.12 ± 0.54
368.15 K	1124.9 ± 1.4	20.09 ± 0.47
373.15 K	1121.1 ± 1.4	17.57 ± 0.41
